The values below are quoted from earlier work in publication PMC8924334, “Synthesis of [^11C]carbonyl-labeled cyclohexyl (5-(2-acetamidobenzo[d]thiazol-6-yl)-2-methylpyridin-3-yl)carbamate ([^11C-carbonyl]PK68) as a potential PET tracer for receptor-interacting protein 1 kinase” (EJNMMI Radiopharmacy and Chemistry, 2022).

Each structure is given as a SMILES string. Like-named read-outs stand apart in the source and are kept apart here.

For series [1], the system named is RIPK1. Details: method as in Hou et al. 2019. The conditions noted are these: human cell line; ref Hou et al. 2019; cited from earlier work.
For series [2], the system named is RIPK1. Details: method as in Hou et al. 2019. The conditions noted are these: mouse cell line; ref Hou et al. 2019; cited from earlier work.
Series [3] deals with melanoma (B16F10). The arrangement: method as in Hou et al. 2019. As to conditions: B16F10-bearing mice; ref Hou et al. 2019; cited from earlier work.
Series [4] has as its system RIPK1. The arrangement: method as in Degterev et al. 2005. As to conditions: ref Degterev et al. 2005; cited from earlier work.
For series [5], the system named is RIPK1. The arrangement: method as in Harris et al. 2017. The conditions noted are these: human cells; ref Harris et al. 2017; cited from earlier work.
The subject of series [6] is RIPK1. The arrangement: method as in Harris et al. 2017, 2019. As to conditions: rodents; ref Harris et al. 2017, 2019; cited from earlier work.

The term IC50 denotes the point on the concentration scale where inhibition reaches its midpoint. `CC(=O)Nc1nc2ccc(-c3cnc(C)c(NC(=O)OC4CCCCC4)c3)cc2s1` [PK68, cyclohexyl (5-(2-acetamidobenzo[d]thiazol-6-yl)-2-methylpyridin-3-yl)carbamate]: the values for the IC50 in series [1] and in series [2] were 23 nM and 13 nM, respectively. In series [3], the “number of tumor metastases” value is “significant reduction in the number of tumor metastases”.

As usually defined, the EC50 is the concentration at which the effect is half-maximal. Take `CN1C(=O)C(Cc2c[nH]c3ccccc23)NC1=S` (centres unmarked) [compound 1, Necrostatin-1]: the “number of tumor metastases” value in series [3] is given as “significant reduction in the number of tumor metastases”. The EC50 in series [4] is 490 nM.

On to `CN1C(=O)NC(Cc2c[nH]c3c(Cl)cccc23)C1=O` (centres unmarked) [compound 2, 7-Cl-O-Nec-1], for which the EC50 in series [4] was 210 nM.

In the case of `CN1C(=O)[C@@H](NC(=O)c2n[nH]c(Cc3ccccc3)n2)COc2ccccc21` [compound 3], the half-maximal inhibitory concentration (IC50) in series [5] was 6.3 nM; in series [6] it was above 1000 nM.
